# Experimental data published in patent US20090306083A1, “Use of Trifluoromethyl Substituted Benzamides in teh Treatment of Neurological Disorders” (Novartis AG, priority 2006, published 2009).
# Test system: not given
# Experiment: not given
# Conditions: not given
row,SMILES,melting point [°C]
1,"Cc1ccc(NC(=O)c2cccc(C(F)(F)F)c2)cc1-c1ccc2ccncc2c1 [Compound 1, N-(3-Isoquinolin-7-yl-4-methyl-phenyl)-3-trifluoromethyl-benzamide]",148 to 152
2,"Cc1ccc(NC(=O)c2cccc(C(F)(F)F)c2)cc1-c1ccc2ncsc2c1 [Compound 5, N-(3-Benzothiazol-6-yl-4-methyl-phenyl)-3-trifluoromethyl-benzamide]",94 to 96
3,"Cc1ccc(NC(=O)c2cccc(C(F)(F)F)c2)cc1-c1ccc2scnc2c1 [Compound 9, N-(3-Benzothiazol-5-yl-4-methyl-phenyl)-3-trifluoromethyl-benzamide]",90 to 93
4,"Cc1ccc(C(=O)Nc2cccc(C(F)(F)F)c2)cc1-c1ccc2ncsc2c1 [Compound 6, 3-Benzothiazol-6-yl-4-methyl-N-(3-trifluoromethyl-phenyl)-benzamide]",102 to 104
5,"Cc1ccc(C(=O)Nc2cccc(C(F)(F)F)c2)cc1-c1ccc2cnncc2c1 [Compound 8, 4-Methyl-3-phthalazin-6-yl-N-(3-trifluoromethyl-phenyl)-benzamide]",270 to 272
6,"Cc1ccc(NC(=O)c2cccc(C(F)(F)F)c2)cc1-c1ccc2cnncc2c1 [Compound 7, N-(4-Methyl-3-phthalazin-6-yl-phenyl)-3-trifluoromethyl-benzamide]",205 to 206
7,"Cc1ccc(C(=O)Nc2cccc(C(F)(F)F)c2)cc1-c1ccc2scnc2c1 [Compound 10, 3-Benzothiazol-5-yl-4-methyl-N-(3-trifluoromethylphenyl)benzamide]",200 to 202

# Test system: astrocytes
# Experiment: Astrocyte scratch wound assay (in vitro assay for astrogliosis)
# Type: cell-based, C57BL/6 mice
# Conditions: cytokines (TGF-α, LIF, and IFN) plus 10 nM compound; serum free=1
# Description: Assay Astrocytes are prepared from the cerebral cortex of neonatal C57BL/6 mice(P1-P2). Cells are maintained in Dulbecco's modified Eagle's medium with 10% FBS. 4-7 weeks old astrocytes are plated to confluence in 2 well chamber slides coated with poly-D-lysine for the scratch wound assay and serum starved. 48 hrs after serum starvation, the monolayer of astrocytes is scratched with sterile 200 μl tips and washed twice with PBS to get rid of cell debris. Conditioned medium (±cytokines) is added to the wounded astrocytes. The microscopic images of the scratch is captured at a magnification of 10× right after scratch and considered as time point 0.24 hrs, 48 hrs or 72 hrs after scratch, the same region of scratch is imaged and fixed with methanol containing 1 μg/ml of DAPI to monitor migration and proliferation of astrocytes.
row,SMILES,astrocyte migration induced by cytokines (relative area of cell migration compared to control)
1,"Cc1ccc(C(=O)Nc2cccc(C(F)(F)F)c2)cc1-c1ccc2ccncc2c1 [Compound 3, 3-Isoquinolin-7-yl-4-methyl-N-(3-trifluoromethyl-phenyl)-benzamide]",block astrocyte migration induced by cytokines

# Target: T1, EphA4 receptor (Mus musculus, UniProt Q03137)
# T1 construct: The brains were removed and one half of each brain was weighed and homogenized; from tissue; host or cells: mouse brain (NMRI mice), homogenate
# T1 sequence (Q03137 20-986): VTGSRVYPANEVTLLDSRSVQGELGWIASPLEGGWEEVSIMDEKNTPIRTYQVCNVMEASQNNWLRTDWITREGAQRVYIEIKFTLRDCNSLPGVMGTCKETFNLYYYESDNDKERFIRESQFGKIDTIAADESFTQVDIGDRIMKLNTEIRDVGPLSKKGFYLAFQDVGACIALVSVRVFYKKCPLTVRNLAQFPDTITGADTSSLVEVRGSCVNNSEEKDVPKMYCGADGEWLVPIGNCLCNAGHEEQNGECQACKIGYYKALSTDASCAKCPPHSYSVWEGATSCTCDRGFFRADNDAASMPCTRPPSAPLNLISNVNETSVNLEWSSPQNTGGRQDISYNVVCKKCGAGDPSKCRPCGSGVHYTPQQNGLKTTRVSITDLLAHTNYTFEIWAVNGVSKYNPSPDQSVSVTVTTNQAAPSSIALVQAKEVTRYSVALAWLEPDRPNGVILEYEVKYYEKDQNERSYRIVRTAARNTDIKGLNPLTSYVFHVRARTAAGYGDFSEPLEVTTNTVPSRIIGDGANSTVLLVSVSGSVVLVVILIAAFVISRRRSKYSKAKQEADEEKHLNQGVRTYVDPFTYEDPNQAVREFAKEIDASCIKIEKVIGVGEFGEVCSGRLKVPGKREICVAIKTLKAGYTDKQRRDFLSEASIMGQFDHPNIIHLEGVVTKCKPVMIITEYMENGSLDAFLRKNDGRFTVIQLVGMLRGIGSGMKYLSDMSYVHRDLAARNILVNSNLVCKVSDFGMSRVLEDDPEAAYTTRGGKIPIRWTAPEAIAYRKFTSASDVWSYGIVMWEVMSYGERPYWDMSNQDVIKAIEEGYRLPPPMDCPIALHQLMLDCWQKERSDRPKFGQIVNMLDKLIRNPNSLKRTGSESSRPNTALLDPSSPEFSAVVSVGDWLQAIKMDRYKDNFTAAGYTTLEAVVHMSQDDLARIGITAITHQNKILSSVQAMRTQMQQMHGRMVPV
# Experiment: Proof of mechanism: EphA4 phosphorylation in vivo in mouse brain (EphA4 immunoprecipitation, phospho-tyrosine Western blot)
# Design: species or system NMRI mice
# Conditions: i.v. dose 10 mg/kg; sacrificed 25 minutes or 1 hour after dosing; brain homogenate
# Description: Male NMRI mice were injected with relevant compounds at a dose of 10 mg/kg body weight and were sacrificed either 25 minutes or 1 hour following the dosing (0.25 h or 1 h shown in FIG. 4). The brains were removed and one half of each brain was weighed and homogenized in appropriate volume of lysis buffer for 30 seconds (10 seconds pulse and 10 seconds off—3 times). The homogenate was spun at 12,000 g for 30 minutes. Protein amounts were estimated for supernatants (using BCA) and equal amounts of protein for each condition were subjected to EphA4 immunoprecipitation followed by a phospho-tyrosine western blot. Four control animals were used and three experimental animals per time point were used for each of the compounds tested.
row,SMILES,EphA4 phosphorylation in vivo in mouse brain
1,"Cc1ccc(C(=O)Nc2cccc(C(F)(F)F)c2)cc1-c1ccc2ccncc2c1 [Compound 3, 3-Isoquinolin-7-yl-4-methyl-N-(3-trifluoromethyl-phenyl)-benzamide]",block EphA4 phosphorylation in vivo in mouse brain
